Experimental data from patent US10196363B2, “Dihydropyrimidin-2-one compounds and medical use thereof” (JAPAN TOBACCO INC., priority 2014, dated 2019).

Tests used:
human RORγ = molecular target: T1, human RORγ (Homo sapiens, UniProt P51449); test: In vitro assay of inhibitory effect against RORγ transcriptional activity (GAL4-hRORγ LBD luciferase reporter gene assay in CHO cells); type: cell-based; settings: for EC50: GAL4-hRORγ LBD / pG5-Luc in CHO cells, 2 days incubation; for hRORγ luciferase activity, %-of-control: value in parentheses beside the > EC50 bound, vehicle-control 0.2% DMSO alone = 100%
T1 construct: human RORγ, from Ser253 to Lys518; expressed in transfected cells; host or cells: CHO cells (Chinese hamster ovary), transient co-transfection with pG5-Luc
T1 sequence (P51449 253-518): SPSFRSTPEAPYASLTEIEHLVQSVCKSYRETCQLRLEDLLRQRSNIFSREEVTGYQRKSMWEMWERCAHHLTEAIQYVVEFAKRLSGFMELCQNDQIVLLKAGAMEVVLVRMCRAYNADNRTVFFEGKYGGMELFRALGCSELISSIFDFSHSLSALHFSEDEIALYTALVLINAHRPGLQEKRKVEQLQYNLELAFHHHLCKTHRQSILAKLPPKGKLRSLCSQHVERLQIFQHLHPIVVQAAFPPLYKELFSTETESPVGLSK
Outline: (§1)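 Luciferase signal, expressed relative to 0.2% DMSO vehicle as 100%, was the read-out after a 2-day compound exposure of CHO cells co-expressing a GAL4-RORγ LBD fusion and a GAL4-responsive reporter. EC50 values came from curve fitting, omitting points showing cytotoxicity.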

mouse RORγ = molecular target: T2, mouse RORγ (Mus musculus, UniProt P51450); test: In vitro assay of inhibitory effect against RORγ transcriptional activity (GAL4-mRORγ LBD luciferase reporter gene assay in CHO cells); type: cell-based; settings: for EC50: GAL4-mRORγ LBD / pG5-Luc in CHO cells, 2 days incubation; for mRORγ luciferase activity, %-of-control: value in parentheses beside the > EC50 bound, vehicle-control 0.2% DMSO alone = 100%
T2 construct: mouse RORγ, from Ile251 to Lys516; expressed in transfected cells; host or cells: CHO cells (Chinese hamster ovary), transient co-transfection with pG5-Luc
T2 sequence (P51450 251-516): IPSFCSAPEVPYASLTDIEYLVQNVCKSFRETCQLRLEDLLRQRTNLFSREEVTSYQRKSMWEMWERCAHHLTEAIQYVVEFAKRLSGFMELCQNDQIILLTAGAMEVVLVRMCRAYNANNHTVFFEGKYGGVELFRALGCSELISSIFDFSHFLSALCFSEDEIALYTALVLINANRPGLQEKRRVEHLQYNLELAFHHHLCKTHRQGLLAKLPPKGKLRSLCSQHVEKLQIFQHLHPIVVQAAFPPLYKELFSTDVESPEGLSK
Outline: as §1

Row | EC50 (human RORγ) [nM] | hRORγ luciferase activity, %-of-control (human RORγ) | EC50 (mouse RORγ) [nM] | mRORγ luciferase activity, %-of-control (mouse RORγ) | Structure (SMILES)
1 | > 8000 | (74%) | > 8000 | (76%) | CC(C)C1=CN(CCC(=O)O)C(=O)N[C@]1(C)c1ccc(CCC2CCCC2)c(Cl)c1 [Example 119]
2 | 61 |  | 14 |  | CC(C)C1=CN(CCC(=O)O)C(=O)N[C@@]1(C)c1ccc(CCC2CCCC2)c(Cl)c1 [Example 120]
3 | > 8000 | (62%) | > 8000 | (85%) | CC(C)C1=CN(CCC(=O)O)C(=O)N[C@]1(C)c1ccc(CCC2CCC2)c(Cl)c1 [Example 121]
4 | 28 |  | 15 |  | CC(C)C1=CN(CCC(=O)O)C(=O)N[C@@]1(C)c1ccc(CCC2CCC2)c(Cl)c1 [Example 122]
5 | > 3200 | (109%) | > 3200 | (100%) | CC(C)C1=CN(CCC(=O)O)C(=O)N[C@]1(C)c1ccc(CCCC(C)(C)C)c(Cl)c1 [Example 123]
6 | > 512 | (54%) | 30 |  | CC(C)C1=CN(CCC(=O)O)C(=O)N[C@@]1(C)c1ccc(CCCC(C)(C)C)c(Cl)c1 [Example 124]
7 | < 32 |  | < 32 |  | CC(C)C1=CN(CCC(=O)O)C(=O)N[C@@]1(C)c1ccc(OCCC(C)(C)C)c(Cl)c1 [Example 125]
8 | 37 |  | 27 |  | CC(C)C1=CN(CCC(=O)O)C(=O)N[C@@]1(C)c1ccc(OCC(C)(C)C)c(Cl)c1 [Example 126]
9 | 2940 |  | 1950 |  | COCCOc1ccc([C@]2(C)NC(=O)N(CCC(=O)O)C=C2C(C)C)cc1Cl [Example 127]
10 | > 20000 | (66%) | > 20000 | (54%) | CC(C)C1=CN(CCC(=O)O)C(=O)N[C@]1(C)c1ccc(CCCC(F)(F)F)c(Cl)c1 [Example 128]
11 | 47 |  | < 32 |  | CC(C)C1=CN(CCC(=O)O)C(=O)N[C@@]1(C)c1ccc(CCCC(F)(F)F)c(Cl)c1 [Example 129]
12 | > 8000 | (77%) | > 8000 | (81%) | CC(C)C1=CN(CCC(=O)O)C(=O)N[C@]1(C)c1ccc(CCC2(C)CC2)c(Cl)c1 [Example 131]
13 | 18 |  | 14 |  | CC(C)C1=CN(CCC(=O)O)C(=O)N[C@@]1(C)c1ccc(CCC2(C)CC2)c(Cl)c1 [Example 132]
14 | > 8000 | (71%) | > 8000 | (88%) | CC(C)C1=CN(CCC(=O)O)C(=O)N[C@]1(C)c1ccc(C2=CCCCC2)c(Cl)c1 [Example 133]
15 | 70 |  | 27 |  | CC(C)C1=CN(CCC(=O)O)C(=O)N[C@@]1(C)c1ccc(C2=CCCCC2)c(Cl)c1 [Example 134]
16 | > 8000 | (90%) | > 8000 | (84%) | CC(C)C1=CN(CCC(=O)O)C(=O)N[C@]1(C)c1ccc(C2CCCCC2)c(Cl)c1 [Example 135]
17 | 94 |  | 49 |  | CC(C)C1=CN(CCC(=O)O)C(=O)N[C@@]1(C)c1ccc(C2CCCCC2)c(Cl)c1 [Example 136]
18 | 15 |  | 11 |  | CC(C)CC1=CN(CCC(=O)O)C(=O)N[C@@]1(C)c1ccc(CCC(C)(C)C)c(Cl)c1 [Example 137]
19 | > 8000 | (85%) | > 8000 | (96%) | CC(C)C1=CN(CCC(=O)O)C(=O)N[C@]1(C)c1ccc(CCC2CCCCC2)c(Cl)c1 [Example 138]
20 | > 512 | (110%) | 27 |  | CC(C)C1=CN(CCC(=O)O)C(=O)N[C@@]1(C)c1ccc(CCC2CCCCC2)c(Cl)c1 [Example 139]
21 | 209 |  | 139 |  | CC(C)C1=CN(CCC(=O)O)C(=O)N[C@@]1(C)c1ccc(OCCC(F)(F)F)c(Cl)c1 [Example 140]
